Assay results published in patent US10774054B2, “FXR (NR1H4) modulating compounds” (Gilead Sciences, Inc., priority 2016, dated 2020).

Experiments:
[1] = Metabolite ID assay in human liver microsomes; format: in vitro ADME; conditions: human liver microsomes 1 mg/mL, 1 mM NADPH, 5 μM substrate, 0, 30, 60 minutes
Procedure: The metabolic stability of Example 3 and Comparative Example 1 in human liver microsmoes was conducted according to the following procedure. Human liver microsomes (35 μL protein concentration 20 mg/mL), 350 μL of 100 mM potassium phosphate buffer (pH 7.4), 245 μL of deionized water and 0.7 μL of compound stock solution (5 mM) were combined in a 1.5 mL microcentrifuge tube. The tube was sealed and gently vortexed for 10 seconds, then placed in an Eppendorf ThermoMixer C and pre-warmed at 37° C. with shaking at 1100 rpm for 5 minutes.
NADPH solution (70 μL; 10 mM in water) was added while shaking, the mixture was aspirated several times with pipet, and 200 μL was removed to a fresh 1.5 mL microcentrifuge tube on ice containing 200 μL of cold acetonitrile. […]
The chilled aliquots were centrifuged at 14,300 rpm in a microcentrifuge for 10 minutes at 10° C., then the supernatant was transferred to a deepwell (1 mL) 96 well plate and sealed with a silicon mat. […] 20 μL samples were analyzed by UPLC-MS in order to identify and quantify the metabolites (Agilent 1290 G4220 binary pump UPLC with Agilent G1316 TCC column oven; Waters Acquity UPLC BEH C18 (130 Å pore size, 1.7 μm particle size, 2.1×50 mm) column held at 40° C.; Agilent 1290 G4212 DAD diode array with wavelength range 190 to 400 nm; Thermo Electron Orbitrap Elite mass spectrometer in FTMS positive mode). […]

[2] = Drug concentration in plasma of Cynomolgus monkey after oral dosing; format: in vivo; conditions: 300 mg/kg
Source text: Each dosing group consisted of three male Cynomolgus monkeys.

SMILES: O=C(O)c1cnc(N2CC(O)(c3ccc(OCc4c(-c5c(Cl)cccc5Cl)noc4C4CC4)cc3Cl)C2)c(F)c1 [Comparative Example 1]
- formation of diol metabolite M1 [1]: metabolized to a diol compound (M1)

SMILES: O=C(O)c1cnc(N2CC(O)(c3ccc(OCc4c(-c5c(Cl)cc(F)cc5Cl)noc4C4CC4)cc3Cl)C2)c(F)c1 [Example 3, 6-(3-(2-chloro-4-((5-cyclopropyl-3-(2,6-dichloro-4-fluorophenyl)isoxazol-4-yl)methoxy)phenyl)-3-hydroxyazetidin-1-yl)-5-fluoronicotinic acid]
- maximal plasma AUC of the two compounds compared [2]: comparable
